# System: Aβ42 production
# Test: Quantification of Aβ peptide in culture of neurons from rat fetus brain (Aβ ELISA)
# Assay type: cell-based
# Conditions: Neuron, 72 h; rat primary neuronal culture (cerebral cortex, embryonic day 18 Wistar rats); medium collected three days after addition of compound; Aβx-42 ELISA; read-out: Activity for reducing Aβ42 production IC50
# Experimental: Quantification of Aβ Peptide in Culture of Neurons from Rat Fetus Brain
# (1) Rat Primary Neuronal Culture
# Primary neuronal cultures were prepared from the cerebral cortex of embryonic day 18 Wistar rats (Charles River Japan, Yokohama, Japan). Specifically, the embryos were aseptically removed from pregnant rats under ether anesthesia. The brain was isolated from the embryo and immersed in an ice-cold L-15 medium (Invitrogen Corp. Cat #11415-064, Carlsbad, Calif., USA, or SIGMA L1518, for example). The cerebral cortex was collected from the isolated brain under a stereoscopic microscope. The cerebral cortex fragments collected were enzymatically treated in an enzyme solution containing 0.25% trypsin (Invitrogen Corp. Cat #15050-065, Carlsbad, Calif., USA) and 0.01% DNase (Sigma D5025, St. Louis, Mo., USA) at 37° C. for 30 minutes to disperse the cells. Here, the enzymatic reaction was stopped by adding inactivated horse serum to the solution. The enzymatically treated solution was centrifuged at 1,500 rpm for five minutes to remove the supernatant. 5 to 10 ml of a medium was added to the resulting cell mass. Neurobasal medium (Invitrogen Corp. Cat #21103-049, Carlsbad, Calif., USA) supplemented with 2% B27 supplement (Invitrogen Corp. Cat #17504-044, Carlsbad, Calif., USA), 25 μM 2-mercaptoethanol (2-ME, WAKO Cat #139-06861, Osaka, Japan), 0.5 mM L-glutamine (Invitrogen Corp. Cat #25030-081, Carlsbad, Calif., USA), and Antibiotics-Antimycotics (Invitrogen Corp. Cat #15240-062, Carlsbad, Calif., USA) was used as the medium (Neurobasal/B27/2-ME). However, the above Neurobasal medium not supplemented with 2-ME (Neurobasal/B27) was used for the assay. The cells were redispersed by mild pipetting of the cell mass to which the medium was added. The cell dispersion was filtered through a 40-μm nylon mesh (Cell Strainer, Cat #35-2340, Becton Dickinson Labware, Franklin Lakes, N.J., USA) to remove the remaining cell mass, and thus a neuronal cell suspension was obtained. The neuronal cell suspension was diluted with the medium and then plated in a volume of 100 μl/well at an initial cell density of 5×10^5 cells/cm^2 in a 96-well polystyrene culture plate pre-coated with poly-L or D-lysine (Falcon Cat #35-3075, Becton Dickinson Labware, Franklin Lakes, N.J., USA coated with poly-L-lysine using the method shown below, or BIOCOAT™ cell environments Poly-D-lysine cell ware 96-well plate, Cat #35-6461, Becton Dickinson Labware, Franklin Lakes, N.J., USA). Poly-L-lysine coating was carried out as follows. 100 μg/ml of a poly-L-lysine (SIGMA P2636, St. Louis, Mo., USA) solution was aseptically prepared with a 0.15 M borate buffer (pH 8.5). 100 μl/well of the solution was added to the 96-well polystyrene culture plate and incubated at room temperature for one or more hours or at 4° C. overnight or longer. The coated 96-well polystyrene culture plate was washed with sterile water four or more times, and then dried or rinsed with, for example, sterile PBS or medium, and used for cell plating. The plated cells were cultured in the culture plate at 37° C. in 5% […]-95% air for one day. Then, the total amount of the medium was replaced with a fresh Neurobasal™/B27/2-ME medium, and then the cells were cultured for further three days.
# The drug was added to the culture plate on Day 4 of culture as follows. The total amount of the medium was removed from the wells, and 180 μl/well of Neurobasal medium not containing 2-ME and containing 2% B-27 (Neurobasal/B27) was added thereto. A solution of the test compound in dimethyl sulfoxide (hereinafter abbreviated as DMSO) was diluted with Neurobasal/B27 so that the initial concentration was at 10-fold of the final concentration. 20 μl/well of the dilution was added to and sufficiently mixed with the medium. The final DMSO concentration was 1% or less. Only DMSO was added to the control group.
# The cells were cultured for three days after addition of the compound, and the total amount of the medium was collected. […]
row,Structure (SMILES),IC50 [nM]
1,"COc1cc(/C=C2\O[C@@H](C)CN([C@@H](C)c3cc(F)nc(F)c3)C2=O)ccc1-n1cnc(C)c1 [Example 53, (Z)-(S)-4-[(S)-1-(2,6-difluoropyridin-4-yl)ethyl]-2-[1-[3-methoxy-4-(4-methyl-1H-imidazol-1-yl)phenyl]methylidene]-6-methylmorpholin-3-one]",40
2,"COc1cc(/C=C2\OC(C)(C)CN([C@H](c3ccc(F)c(F)c3)[C@@H](C)O)C2=O)ccc1-n1cnc(C)c1 [Example 35, (Z)-4-[(1R,2R)-1-(3,4-difluorophenyl)-2-hydroxypropyl]-2-[1-[3-methoxy-4-(methylimidazol-1-yl)phenyl]methylidene]-6,6-dimethylmorpholin-3-one]",23
3,"COc1cc(/C=C2\O[C@@H](C)CN(Cc3cc(F)c(F)c(F)c3)C2=O)ccc1-n1cnc(C)c1 [Example 3, (Z)-(S)-2-[1-[3-methoxy-4-(4-methyl-1H-imidazol-1-yl)phenyl]methylidene]-6-methyl-4-(3,4,5-trifluorobenzyl)morpholin-3-one]",41
4,"COc1cc(/C=C2\OC(C)(C)CN([C@@H](CO)c3ccc(F)cc3)C2=O)ccc1-n1cnc(C)c1 [Example 28, (Z)-4-[(R)-1-(4-fluorophenyl)-2-hydroxyethyl]-2-[1-[3-methoxy-4-(4-methyl-1H-imidazol-1-yl)phenyl]methylidene]-6,6-dimethylmorpholin-3-one]",16
5,"COc1cc(/C=C2\OCCN([C@H](c3ccc(F)c(F)c3)[C@@H](C)O)C2=O)ccc1-n1cnc(C)c1 [Example 31, (Z)-4-[(1R,2R)-1-(3,4-difluorophenyl)-2-hydroxypropyl]-2-[1-[3-methoxy-4-(4-methyl-1H-imidazol-1-yl)phenyl]methylidene]morpholin-3-one]",31
6,"COc1cc(/C=C2\O[C@@H](C)CN([C@@H](C)c3ccc(Cl)nc3)C2=O)ccc1-n1cnc(C)c1 [Example 18, (Z)-(S)-4-[(S)-1-(6-chloropyridin-3-yl)ethyl]-2-[1-[3-methoxy-4-(4-methyl-1H-imidazol-1-yl)phenyl]methylidene]-6-methylmorpholin-3-one]",183
7,"COc1cc(/C=C2\OC(C)(C)CN([C@@H](C)c3ccc(F)nc3F)C2=O)ccc1-n1cnc(C)c1 [Example 55, (Z)-4-[(S)-1-(2,6-difluoropyridin-3-yl)ethyl]-2-[1-[3-methoxy-4-(4-methyl-1H-imidazol-1-yl)phenyl]methylidene]-6,6-dimethylmorpholin-3-one]",111
8,"Cc1cn(-c2ccc(/C=C3\C[C@H](C)CN([C@H](c4cc(F)c(F)c(F)c4)[C@@H](C)O)C3=O)cc2F)cn1 [Example 84, (E)-(S)-3-{1-[3-fluoro-4-(4-methyl-1H-imidazol-1-yl)phenyl]methylidene}-1-[(1R,2R)-2-hydroxy-1-(3,4,5-trifluorophenyl)propyl]-5-methylpiperidin-2-one]",37
9,"COc1cc(/C=C2\OCCN([C@H](c3cc(F)c(F)c(F)c3)[C@@H](C)O)C2=O)ccc1-n1cnc(C)c1 [Example 30, (Z)-4-[(1R,2R)-2-hydroxy-1-(3,4,5-trifluorophenyl)propyl]-2-[1-[3-methoxy-4-(4-methyl-1H-imidazol-1-yl)phenyl]methylidene]morpholin-3-one]",54
10,"COc1cc(/C=C2\O[C@@H](C)CN(C(C)(C)c3ccc(F)cc3)C2=O)ccc1-n1cnc(C)c1 [Example 38, (Z)-(6S)-4-[1-(4-fluorophenyl)-1-methylethyl]-2-[1-[3-methoxy-4-(4-methyl-1H-imidazol-1-yl)phenyl]methylidene]-6-methylmorpholin-3-one]",52
11,"Cc1cn(-c2ccc(/C=C3\O[C@@H](C)CN([C@H](c4cc(F)c(F)c(F)c4)[C@@H](C)O)C3=O)cc2F)cn1 [Example 74, (Z)-(S)-2-[1-[3-fluoro-4-(4-methyl-1H-imidazol-1-yl)phenyl]methylidene]-4-[(1R,2R)-2-hydroxy-1-(3,4,5-trifluorophenyl)propyl]-6-methylmorpholin-3-one]",140
12,"COc1cc(/C=C2\O[C@@H](C)CN([C@@H](C)c3ccc(F)nc3F)C2=O)ccc1-n1cnc(C)c1 [Example 22, (Z)-(S)-4-[(S)-1-(2,6-difluoropyridin-3-yl)ethyl]-2-[1-[3-methoxy-4-(4-methyl-1H-imidazol-1-yl)phenyl]methylidene]-6-methylmorpholin-3-one]",30
13,"COc1cc(/C=C2\OCCN(Cc3cc(F)c(F)c(F)c3)C2=O)ccc1-n1cnc(C)c1 [Example 1, (Z)-2-[1-[3-methoxy-4-(4-methyl-1H-imidazol-1-yl)phenyl]methylidene]-4-(3,4,5-trifluorobenzyl)morpholin-3-one]",77
14,"COc1cc(/C=C2\O[C@@H](C)CN([C@H](C)c3ccc(Cl)nc3)C2=O)ccc1-n1cnc(C)c1 [Example 19, (Z)-(S)-4-[(R)-1-(6-chloropyridin-3-yl)ethyl]-2-[1-[3-methoxy-4-(4-methyl-1H-imidazol-1-yl)phenyl]methylidene]-6-methylmorpholin-3-one]",54
15,"COc1cc(/C=C2\O[C@H](C)CN([C@H]3CCOc4ccccc43)C2=O)ccc1-n1cnc(C)c1 [Example 14, (Z)-(R)-4-[(S)-chroman-4-yl]-2-[1-[3-methoxy-4-(4-methyl-1H-imidazol-1-yl)phenyl]methylidene]-6-methylmorpholin-3-one]",146
16,"COc1cc(/C=C2\OC(C)(C)CN([C@H](c3cc(F)c(F)c(F)c3)[C@@H](C)O)C2=O)ccc1-n1cnc(C)c1 [Example 27, (Z)-4-[(1R,2R)-2-hydroxy-1-(3,4,5-trifluorophenyl)propyl]-2-[1-[3-methoxy-4-(4-methyl-1H-imidazol-1-yl)phenyl]methylidene]-6,6-dimethylmorpholin-3-one]",5
17,"COc1cc(/C=C2\O[C@@H](C)CN([C@H](c3ccc(F)cc3)[C@@H](C)O)C2=O)ccc1-n1cnc(C)c1 [Example 32, (Z)-(S)-4-[(1R,2R)-1-(4-fluorophenyl)-2-hydroxypropyl]-2-[1-[3-methoxy-4-(4-methyl-1H-imidazol-1-yl)phenyl]methylidene]-6-methylmorpholin-3-one]",41
18,"COc1cc(/C=C2\O[C@@H](C)CN(C3(c4ccc(F)cc4)CC3)C2=O)ccc1-n1cnc(C)c1 [Example 39, (Z)-(6S)-4-[1-(4-fluorophenyl)cyclopropyl]-2-[1-[3-methoxy-4-(4-methyl-1H-imidazol-1-yl)phenyl]methylidene]-6-methylmorpholin-3-one]",130
19,"COc1cc(/C=C2\OC(C)(C)CN([C@@H](C)c3ccnc(F)c3F)C2=O)ccc1-n1cnc(C)c1 [Example 58, (Z)-4-[(S)-1-(2,3-difluoropyridin-4-yl)ethyl]-2-[1-[3-methoxy-4-(4-methyl-1H-imidazol-1-yl)phenyl]methylidene]-6,6-dimethylmorpholin-3-one]",67
20,"COc1cc(/C=C2\O[C@H](C)CN(Cc3cc(F)c(F)c(F)c3)C2=O)ccc1-n1cnc(C)c1 [Example 4, (Z)-(R)-2-[1-[3-methoxy-4-(4-methyl-1H-imidazol-1-yl)phenyl]methylidene]-6-methyl-4-(3,4,5-trifluorobenzyl)morpholin-3-one]",69

# Same assay, conditions: rat primary neuronal culture (cerebral cortex, embryonic day 18 Wistar rats); medium collected three days after addition of compound; Aβx-42 ELISA; read-out: Activity for reducing Aβ42 production IC50
row,Structure (SMILES),IC50 [nM]
1,COc1cc(/C=C2\OC[C@H]3CCC[C@@H](c4ccc(F)cc4)N3C2=O)ccc1-n1cnc(C)c1 [Example 16],201

# — patent US7618960B2, “Morpholine type cinnamide compound” (Eisai R&D Management Co., Ltd., priority 2005, dated 2009)
